From US4670432A, “Pyrazolopyridine derivatives useful in treating inflammation and allergic conditions” (Beecham Group p.l.c., priority 1984, dated 1987)

What was measured:
[1] = test system: mouse sensitised to oxazolone; experiment: Mouse Oxazolone Screen (topical anti-inflammatory activity); format: in vivo; conditions: 1 h before oxazolone challenge, ears weighed 24 h later
Description: Compounds were tested for topical anti-inflammatory activity in a screen using the mouse sensitised to oxazolone, by a method modified from that of Dietrich and Hess [Dietrich, F. M., and Hess, R., Int. Arch. Allergy, (1970), 38, 246-259].
Mice were sensitised with oxazolone (2 mg in 20 μl ethanol) on a shaved area of the abdomen. Five days later, the animals received 10 μl THF/MeOH (1:1 v/v) on the right ear, and the test compound in the same solvent on the left ear. One hour later, the animals were challenged with 100 μg oxazolone in 10 μl acetone on each ear. Ear weights were measured 24 h later. Percentage inhibition of the inflammatory swelling refers to the increase in weight of left ears (oxazolone plus compound) compared with solvent-treated negative controls, as a proportion of the increase in weight of right ears (oxazolone alone) over similar controls.

cantharidin mouse ear = experiment: Mouse Cantharidin Screen (topical anti-inflammatory activity); format: in vivo; conditions: applied with cantharidin, 24 h
Description: Compounds were tested for topical anti-flammatory activity in a cantharidin mouse ear screen, modified from Swingle et al [Swingle, K. F., Reiter, M. J. and Schwartzmiller, D. H., Arch. Int. Pharmacodyn. (1981), 254, 168-176].
25 μg cantharidin (in 10 μl THF/MeOH) was applied to both ears. Compound, in the same solvent, was applied at the same time, to the left ear only. Ears were weighed 24 h after cantharidin application. Percentage inhibition of the acute inflammatory swelling refers to the increase in weight of left ears (catharidin plus compound) compared with solvent-treated negative controls, as a proportion of the increase in weight of right ears (cantharidin alone) over similar controls.

5-Lipoxygenase = experiment: RBL-1 5-Lipoxygenase Screen; format: biochemical; conditions: 20 μM; 10,000 g supernatant from RBL-1 cells, 29° C.
Description: 5-Lipoxygenase enzyme was prepared as a 10,000 g supernatant from RBL-1 cells by the method of Jakschik [Jakschik, B. A., Sun, F. F., Lee, L. M. and Steinhoff, M. M., 1980, Biochem. Biophys. Res. Comm. 95, 103]. The 10,000 g supernatant was diluted with homogenization buffer to the equivalent of 1.5-2.5×10^7 cells ml^-1 and made 2 mM with respect to CaCl2. Aliquots of 0.5 ml were then dispensed into tubes, and incubated at 29° C. with 5 γl ethanol or compound in ethanol at the desired concentration for 2 min. Then [1-^14 C] arachidonic acid was added in buffer to give a final concentration of 6.3. μm and 0.2 μCi per incubation, and the reaction continued at 29° C. for 2 min. The reaction was terminated by adding 1 ml of acetone and cooling on ice. 0.5 ml of ice cold saline and 10 μl of 2N formic acid were added, and the mixture was extracted with 2×2 ml of chloroform. The extract was stored under N2 at -20° C. until analysis by chromatography. Activity was measured as the percentage of total radioactivity found in 5-HETE and 5,12-diHETE, and inhibition calculated as the decrease in formation of the sum of these two species in compound-treated incubates relative to control incubates.

Row | Compound | % Inhibition (inflammatory swelling, ear weight) ([1]; 200 μg/ear) | % Inhibition (acute inflammatory swelling, ear weight) (cantharidin mouse ear; 200 μg/ear) | inhibition (decrease in formation of 5-HETE and 5,12-diHETE) (5-Lipoxygenase) | % Inhibition (acute inflammatory swelling, ear weight) (cantharidin mouse ear; 500 μg/ear) | % Inhibition (inflammatory swelling, ear weight) ([1]; 500 μg/ear)
1 | C=CCNc1cc(C)nc2cn[nH]c12 [Example 1, 7-Allylamino-5-methyl-1H-pyrazolo[4,3-b]pyridine] | 62% | 88% | 39% |  | 
2 | Cc1cc(NCCCN(C)C)c2[nH]ncc2n1 [Example 6, 7-[3-Dimethylaminopropylamino]-5-methyl-1H-pyrazolo[4,3-b]pyridine] |  |  |  | 97% | 
3 | COCCNc1cc(C)nc2c[nH]nc12 [Example 4] | 52% | 57% |  |  | 
4 | C=CCNc1ccnc2cn[nH]c12 [Example 7, 7-Allylamino-1H-pyrazolo[4,3-b]pyridine] |  |  |  | 83% | 
5 | Cc1cc(NCCCO)c2[nH]ncc2n1 [Example 2, 7-[3-hydroxypropylamino]-5-methyl-1H-pyrazolo[4,3-b]pyridine] |  | 82% |  |  | 82%
6 | Cc1cc(NCCO)c2[nH]ncc2n1 [Example 3, 7-[2-Hydroxyethylamino]-5-methyl-1H-pyrazolo[4,3-b]pyridine] | 65% | 76% |  |  | 
7 | C=CCNc1cc(C)nc2cn(C)nc12 [Example 5, 7-Allylamino-2,5-dimethyl-pyrazolo[4,3-b]pyridine] | 71% | 68% |  |  | 
